Earlier results in patent US4018912A, “Tripeptide derivatives with central nervous system activity and preparation thereof” (Ayerst McKenna and Harrison Ltd., priority 1975, dated 1977).
Where two headings read alike, the source gives them in different places.

Key:
effects of oxotremorine = conditions: literature (Plotnikoff et al. 1972)
[1] = in vivo
[2] = system: sedative effects of deserpidine; conditions: mice; literature (Plotnikoff et al. 1973)
[3] = system: sedative effects of deserpidine; conditions: monkeys; literature (Plotnikoff et al. 1973)
effects of L-DOPA = conditions: literature (Plotnikoff et al. 1971; Friedman et al. 1973)
[4] = prior art; due to rapid inactivation in the mammalian body

H-L-prolyl-L-leucyl-glycinamide [H--Pro--Leu--Gly--NH2]
antagonism of the effects of oxotremorine (effects of oxotremorine): antagonizes the effects of oxotremorine | first step in the inactivation [1]: proteolytic cleavage of the Pro-Leu bond with formation of proline and leucyl-glycinamide | reversal of the sedative effects of deserpidine [2]: reverses the sedative effects of deserpidine | reversal of the sedative effects of deserpidine [3]: reverses the sedative effects of deserpidine | potentiation of the behavioral effects of L-DOPA (effects of L-DOPA): potentiates the behavioral effects of (3,4-dihydroxyphenyl)-L-alanine (L-DOPA) | duration of action [4]: short duration of action
